Laboratory results: patent publication US20240199692A1 (priority 2019, published 2024)
*1 amine or outer side, *2 acyl side, *3 side chain or, on linkers, in order; H or OH if unused. Where a SMILES comes first, the peptide text is derived from it. Bridges are numbered along the chain shown (N, C = ends). [ ]: non-standard residue; d: D form. The star is where a group is joined. Phenylsulfonyl(4-anisamido) = COc1ccc(C(=O)Nc2ccc(S(=O)(=O)*)cc2)cc1; Benzenesulfonyl(4-OPh) = O=S(=O)(c1ccc(Oc2ccccc2)cc1)*; X14 = CN(C)C(=O)c1ccc(C(=O)Nc2ccc(S(=O)(=O)*)cc2)cc1; X1 = O=C(Nc1ccc(S(=O)(=O)*)cc1)c1ccc(OC(F)(F)F)cc1; X3 = O=C(Nc1ccc(S(=O)(=O)*)cc1)c1ccc(OC2CC2)cc1; X12 = O=S(=O)(c1ccc(-c2cn(-c3ccccc3)nn2)cc1)*; X8 = CCCOc1ccc(C(=O)Nc2ccc(S(=O)(=O)*)cc2)cc1; X17 = CC(=O)Nc1ccc(-c2ccc(S(=O)(=O)*)cc2)cc1; X2 = CCOc1ccc(C(=O)Nc2ccc(S(=O)(=O)*)cc2)cc1; X10 = NC(=O)c1ccc(-c2ccc(S(=O)(=O)*)cc2)cc1; X15 = CC(=O)c1ccc(-c2ccc(S(=O)(=O)*)cc2)cc1; d(γGlu) = O=C(O)[C@@H](CCC(=O)[*:2])N[*:1]; d(βAsp) = O=C(O)[C@@H](CC(=O)[*:2])N[*:1]; X7 = O=S(=O)(c1ccc(-c2ccc(OCCO)cc2)cc1)*; X5 = O=S(=O)(c1ccc(-c2ccc(CO)cc2)cc1)*; NMeI = CC[C@H](C)[C@H](NC)C(=O)O; NMeE = CN[C@@H](CCC(=O)O)C(=O)O; β3hP = O=C(O)C[C@@H]1CCCN1; Dab = NCC[C@H](N)C(=O)O; Dap = NC[C@H](N)C(=O)O; GABA = NCCCC(=O)O

These compounds were tested against T1, MMP2 (Homo sapiens, UniProt P08253) (assay: Inhibitory effects on human MMP2 (Method 1), enzyme assay with MOCAc-Pro-Leu-Gly-Leu-A2pr(Dnp)-Ala-Arg-NH2 substrate, 96-well). Conditions: Test Example No. 1-1 (Method 1, 96-well microplate); read-out: Human MMP2, IC50.
T1 sequence (P08253 110-660): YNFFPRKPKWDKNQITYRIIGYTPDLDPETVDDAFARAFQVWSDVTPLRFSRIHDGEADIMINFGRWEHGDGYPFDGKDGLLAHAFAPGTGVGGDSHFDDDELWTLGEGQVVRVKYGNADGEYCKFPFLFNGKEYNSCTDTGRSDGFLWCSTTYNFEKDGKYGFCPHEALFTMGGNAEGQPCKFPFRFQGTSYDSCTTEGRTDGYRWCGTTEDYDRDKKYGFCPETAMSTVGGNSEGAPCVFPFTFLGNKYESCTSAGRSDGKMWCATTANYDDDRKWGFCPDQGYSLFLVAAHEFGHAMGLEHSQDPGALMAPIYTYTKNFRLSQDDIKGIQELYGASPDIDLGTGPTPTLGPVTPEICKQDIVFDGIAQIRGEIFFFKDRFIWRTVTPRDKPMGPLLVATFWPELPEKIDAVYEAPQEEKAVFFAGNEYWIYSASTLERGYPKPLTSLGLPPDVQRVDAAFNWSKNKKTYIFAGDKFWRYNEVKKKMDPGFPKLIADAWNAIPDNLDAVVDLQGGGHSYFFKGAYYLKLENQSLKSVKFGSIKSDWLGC
Type: biochemical
Procedure: In a reaction solution [50 mmol/L Tris-HCl (pH 7.5), 150 mmol/L NaCl, 10 mmol/L CaCl2, 0.05% Brij L23], 100 μg/mL human recombinant MMP2 enzyme and 1 mmol/L 4-Aminophenylmercuric acetate were mixed together, and reacted at 37° C. for 60 minutes. The human MMP2 activated through the reaction was poured into a 96-well microplate to reach a final concentration of 0.7 or 7 ng/mL.

Structure (SMILES)	IC50
CC(C)C[C@H](NC(=O)[C@H](CN)NC(=O)C[C@@H](NS(=O)(=O)c1ccc(NC(=O)c2ccc(C(=O)N(C)C)cc2)cc1)C(=O)O)C(=O)N(C)[C@@H](CCC(=O)O)C(=O)N1CCC[C@H]1CC(N)=O [Compound 679] ({X14-d(βAsp)}-[Dap]L[NMeE][β3hP]-NH2; N-terminus assumed)	1.5 nM
COc1ccc(C(=O)Nc2ccc(S(=O)(=O)N[C@H](CCC(=O)N[C@@H](CCN)C(=O)N[C@@H](CC(C)C)C(=O)N(C)[C@@H](CCC(=O)O)C(=O)N3CCC[C@H]3CC(N)=O)C(=O)O)cc2)cc1 [Compound 697] ({Phenylsulfonyl(4-anisamido)-d(γGlu)}-[Dab]L[NMeE][β3hP]-NH2; N-terminus assumed)	0.28 nM
CCOc1ccc(C(=O)Nc2ccc(S(=O)(=O)N[C@H](CCC(=O)N[C@@H](CCN)C(=O)N[C@@H](CC(C)C)C(=O)N(C)[C@H](C(=O)N3CCC[C@H]3CC(N)=O)[C@@H](C)CC)C(=O)O)cc2)cc1 [Compound 698] ({X2-d(γGlu)}-[Dab]L[NMeI][β3hP]-NH2; N-terminus assumed)	0.31 nM
CCOc1ccc(C(=O)Nc2ccc(S(=O)(=O)N[C@H](CCC(=O)N[C@@H](CCN)C(=O)N[C@@H](CC(C)C)C(=O)N(C)[C@@H](CCC(=O)O)C(=O)N3CCC[C@H]3CC(N)=O)C(=O)O)cc2)cc1 [Compound 702] ({X2-d(γGlu)}-[Dab]L[NMeE][β3hP]-NH2; N-terminus assumed)	0.25 nM
CC(C)C[C@H](NC(=O)[C@H](CCN)NC(=O)CC[C@@H](NS(=O)(=O)c1ccc(NC(=O)c2ccc(OC3CC3)cc2)cc1)C(=O)O)C(=O)N(C)[C@@H](CCC(=O)O)C(=O)N1CCC[C@H]1CC(N)=O [Compound 703] ({X3-d(γGlu)}-[Dab]L[NMeE][β3hP]-NH2; N-terminus assumed)	0.33 nM
CC(C)C[C@H](NC(=O)[C@H](CCN)NC(=O)CC[C@@H](NS(=O)(=O)c1ccc(NC(=O)c2ccc(OC(F)(F)F)cc2)cc1)C(=O)O)C(=O)N(C)[C@@H](CCC(=O)O)C(=O)N1CCC[C@H]1CC(N)=O [Compound 704] ({X1-d(γGlu)}-[Dab]L[NMeE][β3hP]-NH2; N-terminus assumed)	0.42 nM

Next, values leading:

IC50	Structure (SMILES)
0.34 nM	CC[C@H](C)[C@@H](C(=O)N1CCC[C@H]1CC(N)=O)N(C)C(=O)[C@H](CC(C)C)NC(=O)[C@H](CCN)NC(=O)CC[C@@H](NS(=O)(=O)c1ccc(-c2cn(-c3ccccc3)nn2)cc1)C(=O)O [Compound 608, N-[(2S)-4-amino-1-({(2S)-1-[{(2S,3S)-1-[(2S)-2-(2-amino-2-oxoethyl)pyrrolidin-1-yl]-3-methyl-1-oxopentan-2-yl}(methyl)amino]-4-methyl-1-oxopentan-2-yl}amino)-1-oxobutan-2-yl]-N^2-[4-(1-phenyl-1H-1,2,3-triazol-4-yl)benzene-1-sulfonyl]-D-glutamine] ({X12-d(γGlu)}-[Dab]L[NMeI][β3hP]-NH2)
0.13 nM	CC[C@H](C)[C@@H](C(=O)N1CCC[C@H]1CC(N)=O)N(C)C(=O)[C@H](CC(C)C)NC(=O)[C@H](C)NC(=O)C[C@@H](NS(=O)(=O)c1ccc(-c2ccc(C(C)=O)cc2)cc1)C(=O)O [Compound 634, N^2-(4′-acetyl[1,1′-biphenyl]-4-sulfonyl)-N-[(2S)-1-({(2S)-1-[{(2S,3S)-1-[(2S)-2-(2-amino-2-oxoethyl)pyrrolidin-1-yl]-3-methyl-1-oxopentan-2-yl}(methyl)amino]-4-methyl-1-oxopentan-2-yl}amino)-1-oxopropan-2-yl]-D-asparagine] ({X15-d(βAsp)}-AL[NMeI][β3hP]-NH2)
0.83 nM	CC[C@H](C)[C@@H](C(=O)N1CCC[C@H]1CC(N)=O)N(C)C(=O)[C@H](CC(C)C)NC(=O)[C@H](C)NC(=O)C[C@@H](NS(=O)(=O)c1ccc(-c2ccc(C(N)=O)cc2)cc1)C(=O)O [Compound 635] ({X10-d(βAsp)}-AL[NMeI][β3hP]-NH2; N-terminus assumed)
0.94 nM	CC[C@H](C)[C@@H](C(=O)N1CCC[C@H]1CC(N)=O)N(C)C(=O)[C@H](CC(C)C)NC(=O)[C@H](C)NC(=O)C[C@@H](NS(=O)(=O)c1ccc(-c2ccc(NC(C)=O)cc2)cc1)C(=O)O [Compound 636] ({X17-d(βAsp)}-AL[NMeI][β3hP]-NH2; N-terminus assumed)
0.48 nM	CC(C)C[C@H](NC(=O)[C@H](CN)NC(=O)C[C@@H](NS(=O)(=O)c1ccc(-c2ccc(CO)cc2)cc1)C(=O)O)C(=O)N(C)[C@@H](CCC(=O)O)C(=O)N1CCC[C@H]1CC(N)=O [Compound 637] ({X5-d(βAsp)}-[Dap]L[NMeE][β3hP]-NH2; N-terminus assumed)
0.14 nM	CC(C)C[C@H](NC(=O)[C@H](CN)NC(=O)C[C@@H](NS(=O)(=O)c1ccc(-c2ccc(OCCO)cc2)cc1)C(=O)O)C(=O)N(C)[C@@H](CCC(=O)O)C(=O)N1CCC[C@H]1CC(N)=O [Compound 638] ({X7-d(βAsp)}-[Dap]L[NMeE][β3hP]-NH2; N-terminus assumed)
0.38 nM	CC(C)C[C@H](NC(=O)[C@H](CCN)NC(=O)C[C@@H](NS(=O)(=O)c1ccc(-c2ccc(OCCO)cc2)cc1)C(=O)O)C(=O)N(C)[C@@H](CCC(=O)O)C(=O)N1CCC[C@H]1CC(N)=O [Compound 640] ({X7-d(βAsp)}-[Dab]L[NMeE][β3hP]-NH2; N-terminus assumed)
1.6 nM	CC[C@H](C)[C@@H](C(=O)N1CCC[C@H]1CC(N)=O)N(C)C(=O)[C@H](CC(C)C)NC(=O)[C@H](CCN)NC(=O)C[C@@H](NS(=O)(=O)c1ccc(-c2ccc(CO)cc2)cc1)C(=O)O [Compound 642] ({X5-d(βAsp)}-[Dab]L[NMeI][β3hP]-NH2; N-terminus assumed)
0.068 nM	CC[C@H](C)[C@@H](C(=O)N1CCC[C@H]1CC(N)=O)N(C)C(=O)[C@H](CC(C)C)NC(=O)[C@H](CN)NC(=O)C[C@@H](NS(=O)(=O)c1ccc(NC(=O)c2ccc(OC)cc2)cc1)C(=O)O [Compound 692, N-[(2S)-3-amino-1-({(2S)-1-[{(2S,3S)-1-[(2S)-2-(2-amino-2-oxoethyl)pyrrolidin-1-yl]-3-methyl-1-oxopentan-2-yl}(methyl)amino]-4-methyl-1-oxopentan-2-yl}amino)-1-oxopropan-2-yl]-N^2-[4-(4-methoxybenzamido)benzene-1-sulfonyl]-D-asparagine] ({Phenylsulfonyl(4-anisamido)-d(βAsp)}-[Dap]L[NMeI][β3hP]-NH2)
0.094 nM	CC[C@H](C)[C@@H](C(=O)N1CCC[C@H]1CC(N)=O)N(C)C(=O)[C@H](CC(C)C)NC(=O)[C@H](CCN)NC(=O)C[C@@H](NS(=O)(=O)c1ccc(NC(=O)c2ccc(OC)cc2)cc1)C(=O)O [Compound 694] ({Phenylsulfonyl(4-anisamido)-d(βAsp)}-[Dab]L[NMeI][β3hP]-NH2; N-terminus assumed)
0.53 nM	CC[C@H](C)[C@@H](C(=O)N1CCC[C@H]1CC(N)=O)N(C)C(=O)[C@H](CC(C)C)NC(=O)[C@H](CCN)NC(=O)CC[C@@H](NS(=O)(=O)c1ccc(NC(=O)c2ccc(OC)cc2)cc1)C(=O)O [Compound 695] ({Phenylsulfonyl(4-anisamido)-d(γGlu)}-[Dab]L[NMeI][β3hP]-NH2; N-terminus assumed)
0.22 nM	CCCOc1ccc(C(=O)Nc2ccc(S(=O)(=O)N[C@H](CCC(=O)N[C@@H](CCN)C(=O)N[C@@H](CC(C)C)C(=O)N(C)[C@H](C(=O)N3CCC[C@H]3CC(N)=O)[C@@H](C)CC)C(=O)O)cc2)cc1 [Compound 696] ({X8-d(γGlu)}-[Dab]L[NMeI][β3hP]-NH2; N-terminus assumed)
0.41 nM	CC[C@H](C)[C@@H](C(=O)N1CCC[C@H]1CC(N)=O)N(C)C(=O)[C@H](CC(C)C)NC(=O)[C@H](CCN)NC(=O)CC[C@@H](NS(=O)(=O)c1ccc(NC(=O)c2ccc(OC3CC3)cc2)cc1)C(=O)O [Compound 700] ({X3-d(γGlu)}-[Dab]L[NMeI][β3hP]-NH2; N-terminus assumed)

Same assay, conditions: Test Example No. 1-1 (Method 1, 96-well); read-out: Human MMP2, IC50

IC50	Structure (SMILES)
1.6 nM	CC[C@H](C)[C@@H](C(=O)N1CCC[C@H]1CC(=O)O)N(C)C(=O)[C@@H]1CCCCNC(=O)CNC(=O)CC[C@H](NC(=O)CCCNS(=O)(=O)c2ccc(Oc3ccccc3)cc2)C(=O)N[C@@H](CC(=O)O)C(=O)N[C@@H](C)C(=O)N1 [Compound 891] ({Benzenesulfonyl(4-OPh)-GABA}-EDAK[NMeI][β3hP]-OH; linker 1-4 via G)
1.7 nM	CC[C@H](C)[C@@H](C(=O)N1CCC[C@H]1CC(N)=O)N(C)C(=O)[C@@H]1CCCCNC(=O)CNC(=O)CC[C@H](NC(=O)CCCNS(=O)(=O)c2ccc(Oc3ccccc3)cc2)C(=O)N[C@@H](CC(=O)O)C(=O)N[C@@H](C)C(=O)N1 [Compound 892, [(2S,5S,8S,20S)-8-[{(2S,3S)-1-[(2S)-2-(2-amino-2-oxoethyl)pyrrolidin-1-yl]-3-methyl-1-oxopentan-2-yl}(methyl)carbamoyl]-5-methyl-3,6,14,17,21-pentaoxo-20-{4-[(4-phenoxybenzene-1-sulfonyl)amino]butanamido}-1,4,7,13,16-pentaazacyclohenicosan-2-yl]acetic acid] ({Benzenesulfonyl(4-OPh)-GABA}-EDAK[NMeI][β3hP]-NH2; linker 1-4 via G)
